Data as given in the supplement of paper PMC4954754.
± gives the uncertainty stated by the source.

Key:
Details in all cases: 18 h
[1] = system: HEK293T-Rex ERSE-FLuc; test: EC50 for ERSE-FLuc reporter activation
Procedure: (§1)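 Dose-response of hit compounds in HEK293T-Rex cells stably expressing ERSE-FLuc or XBP1-RLuc reporters, 18 hr treatment, 1536-well; luminescence normalised to 500 nM thapsigargin (100%) and DMSO (0%), fitted to give EC50 (M) and maximal activation; '>' marks EC50 above the top tested dose (~17 µM).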

[2] = system: HEK293T-Rex XBP1-RLuc; test: EC50 for XBP1-RLuc reporter activation
Procedure: as §1

[3] = system: HEK293T-Rex XBP1-RLuc; test: maximal XBP1-RLuc activation from dose-response fit, relative to thapsigargin (% of thapsigargin); higher = stronger activation
Procedure: as §1

[4] = system: HEK293T-Rex ERSE-FLuc; test: maximal ERSE-FLuc activation from dose-response fit, relative to thapsigargin (% of thapsigargin); higher = stronger activation
Procedure: as §1

SMILES | EC50 for ERSE-FLuc reporter activation [1] | EC50 for XBP1-RLuc reporter activation [2] | maximal XBP1-RLuc activation [3] | maximal ERSE-FLuc activation [4]
CC(=O)N1CCc2c([nH]c3ccccc23)C12CCN(CCCOc1ccccc1)CC2 | 2.94 µM | 2.11 µM | 176 ± 21 | 151 ± 7.6
Cc1ccc2c(N)c(C(=O)c3ccc4c(c3)OCO4)sc2n1 | > 16.9 µM | > 16.9 µM | 11.4 ± 3.8 | 25.1 ± 2.7
CC(C)c1ccc(NC(=O)/C=C/c2ccco2)cc1 | > 17.2 µM | > 17.2 µM | 7.59 ± 2.4 | 21.5 ± 4.6
CCOc1cc(/C=C2/NC(=O)N(Cc3ccc(F)cc3)C2=O)ccc1O | > 16.9 µM | 11.9 µM | 56.8 ± 0.68 | 36.3 ± 4.1
CNc1ccc2oc(C[C@H]3O[C@@]4(CC[C@H]3C)O[C@H]([C@H](C)C(=O)c3ccc[nH]3)[C@H](C)C[C@H]4C)nc2c1C(=O)O | 2.39 µM | 4.49 µM | 91.4 ± 5.9 | 56.9 ± 16
C/C(=N\NC(=O)c1n[nH]c2c1CCCC2)c1ccc2ccccc2c1 | > 16.9 µM | > 16.9 µM | 8.52 ± 1 | 23.2 ± 3.1
COc1cc2ccccc2cc1C(=O)N/N=C/c1cccs1 | > 16.9 µM | > 16.9 µM | 5.33 ± 6.5 | 21.5 ± 3.6
O=C(Nc1ccc2c(c1)OCCO2)C(=O)Nc1ccccc1Cl | > 16.9 µM | > 16.9 µM | 2.68 ± 2.8 | 16.5 ± 0.52
CC(C)c1ccc(/C=N\NC(=O)c2ccccc2)cc1 | > 16.9 µM | > 16.9 µM | 17.7 ± 5.7 | 19.3 ± 9.1
Cc1ccc2nc(/C(C#N)=C/c3ccc(O)c(O)c3)[nH]c2c1 | > 16.9 µM | > 16.9 µM | 19.7 ± 5.9 | 23.4 ± 2.9
COc1cccc(Nc2nc(-c3ccc(OC)c(F)c3)cs2)c1 | > 16.9 µM | > 16.9 µM | 3.68 ± 1.6 | 19.7 ± 3.5
Nc1ccccc1NC(=O)c1ccc(Cl)cc1 | 7.9 µM | > 17.2 µM | 34.9 ± 0.91 | 82.8 ± 4.7
Cc1ccc2nc(NC(=O)c3cccc4ccccc34)sc2c1 | > 15.1 µM | > 15.1 µM | 11.2 ± 1.2 | 38.8 ± 5.3
Nc1ccc2nc(/C=C/c3ccccc3)[nH]c2c1 | > 15.3 µM | > 15.3 µM | 23.8 ± 1.7 | 34.4 ± 4.7
CC(C)NC(=O)c1cc(-c2ccc(O)cc2)on1 | > 16.9 µM | > 16.9 µM | 0.798 ± 0.58 | 1.46 ± 1
C(=N/Nc1nnc2c(n1)[nH]c1ccccc12)/c1c[nH]c2ccccc12 | > 16.9 µM | > 16.9 µM | 26 ± 1.9 | 43.9 ± 1.3
Cc1cc(C)c(OCC(=O)N/N=C/c2ccc(O)c(O)c2)c(Br)c1 | > 16.9 µM | > 16.9 µM | 41.1 ± 11 | 49.6 ± 5.9
Cc1cnc(NC(=O)c2sc3nc4c(C)cccc4cc3c2N)s1 | 11.5 µM | 6.88 µM | 96.9 ± 3.6 | 58.9 ± 6.1
CCCCNNC(=O)c1ccc(Br)cc1 | 4.91 µM | > 17.4 µM | 8.05 ± 3.5 | 95.4 ± 25
Cc1cc(C)nc(/N=C(\N)Nc2ccc(OCc3ccccc3)cc2)n1 | > 14.6 µM | 0.788 µM | 94.2 ± 4.2 | 46.9 ± 15
CN(c1ccccc1)S(=O)(=O)c1cccc(C(=O)NCCc2ccc(O)c(O)c2)c1 | 6.56 µM | 8.35 µM | 125.1 ± 1 | 202 ± 34
CN(C)/C=N/C1=C(C#N)C(c2ccc3c(c2)OCO3)c2ccc3ccccc3c2O1 (configuration not stated) | > 16.6 µM | > 16.6 µM | 7.29 ± 3.2 | 21.8 ± 6.6

SMILES | EC50 for ERSE-FLuc reporter activation [1] | EC50 for XBP1-RLuc reporter activation [2] | maximal XBP1-RLuc activation [3] | maximal ERSE-FLuc activation [4]
Oc1ccc(/C=N/Nc2cccc3cccnc23)cc1O | > 16.9 µM | > 16.9 µM | 35 ± 3.2 | 30.7 ± 5.1
O=C(CCc1ccccc1)Nc1ccc(Cl)cn1 | > 17.7 µM | > 17.7 µM | 5.24 ± 0.68 | 26.1 ± 2.5
Oc1ccc(-c2csc(-c3ccccc3)n2)cc1O | 5.39 µM | 11.3 µM | 65.9 ± 7.2 | 65.2 ± 8.8
N#C/C(=C/c1ccc(O)c(O)c1)c1nc2ccccc2s1 | > 16.9 µM | > 16.9 µM | 27.5 ± 2.7 | 38.1 ± 2.2
COc1ccc(-c2cnnc(N/N=C/c3ccc(O)c(O)c3)n2)cc1 | 14.7 µM | 16.8 µM | 50.5 ± 3.9 | 54.5 ± 13
C=CCn1c(N2CCC(C(=O)NCCc3ccc(O)c(O)c3)CC2)nc2ccccc21 | 8.27 µM | 7.94 µM | 97.8 ± 31 | 150 ± 16
COC(=O)c1ccc(C(=O)Nc2ccccc2N)cc1 | 9.08 µM | > 17.8 µM | 28 ± 2.5 | 91.1 ± 14
C=CCNC(=O)c1cc(-c2ccc(F)cc2)on1 | 16.7 µM | > 16.9 µM | 6.35 ± 5.3 | 50.2 ± 7.4
CC(=O)Oc1cc(N2CCOCC2)c(OC(C)=O)c2c1C(=O)c1ccccc1C2=O | > 16.9 µM | > 16.9 µM | 3.44 ± 3.3 | 9.5 ± 2.7
N#Cc1c(NC(=O)/C=C/c2ccco2)sc2c1CCCC2 | > 17 µM | > 17 µM | 5.59 ± 3 | 22.8 ± 6.6
Cc1ccc(-c2csc(Nc3ccc(O)cc3)n2)cc1 | > 16.9 µM | 8.04 µM | 127 ± 1.4 | 40.9 ± 7.5
NC(=O)c1c(NC(=O)/C=C/c2ccccc2)sc2c1CCCCC2 | > 16.9 µM | > 16.9 µM | 3.01 ± 2.8 | 22.6 ± 3.1
O=C(/C=C/c1ccco1)Nc1ccccn1 | > 16.9 µM | > 16.9 µM | 1.83 ± 1.4 | 18.7 ± 4.8
CCOc1ccc(NC(=O)c2ccc3c(c2)OCO3)c([N+](=O)[O-])c1 | > 18.6 µM | > 18.6 µM | 0.524 ± 1.2 | 14.7 ± 3
COc1cccc(-c2cc(C(=O)Nc3cc(C)ccc3O)on2)c1 | 8.72 µM | > 16.9 µM | 25.6 ± 5.2 | 87 ± 20
Cc1ccc(C(=O)Nc2sc3c(c2C#N)CCC3)cc1 | > 16.7 µM | > 16.7 µM | 2.39 ± 0.61 | 17.6 ± 5
O=[N+]([O-])c1ccc2nc(/C=C/c3ccccc3)[nH]c2c1 | > 16.9 µM | > 16.9 µM | 3.13 ± 2.4 | 23.7 ± 12
N#Cc1c(NC(=O)c2cnccn2)sc2c1CCCC2 | > 17.9 µM | > 17.9 µM | 4.67 ± 1.1 | 18.9 ± 4.8
Nc1ccc(-c2nc3cc(N)c(Cl)cc3[nH]2)cc1 | > 14.7 µM | > 14.7 µM | 17.6 ± 0.39 | 29.6 ± 7.5
N#C/C(=C\c1ccc(O)c(O)c1)C(=O)Nc1ccccc1 | 24.6 µM | > 33.8 µM | 21.5 ± 0.57 | 52.2 ± 13
CCCCCCOc1ccc(/C(C)=N/NC2=NCCN2)cc1[N+](=O)[O-] | > 16.9 µM | > 16.9 µM | 16.3 ± 1.6 | 34.7 ± 1.6
